Laboratory results: EP3067058A1, “BIOLOGICAL COMPOSITION BASED ON ENGINEERED LACTOBACILLUS PARACASEI SUBSP. PARACASEI F19 FOR THE BIOSYNTHESIS OF CANNABINOIDS” (Farmagens Health Care Srl, priority 2015, dated 2016)

Tests used:
Bax = assay: Immunoblot of pro-apoptotic Bax protein in Caco-2 cells; type: cell-based, human; settings: 96 hrs incubation; 10^11 cfu; caproic acid 0.003-0.3µg/ml
Experimental: (§1) Caco-2 cell colture. Caco-2 cells were cultured in Dulbecco's Modified Eagle's Medium (DMEM) supplemented with 5% Foetal Bovine Serum (FBS), 2 mM glutamine, 100 U/mL penicillin, 100 µg/mL streptomycin at 37 °C in 5% CO2/95% air. At confluence cells were washed three times with Phosphate Buffer Saline (PBS), detached with tripsyn/EDTA, plated in 10 cm diameter Petri dishes and left to adhere for 24 hrs. Thereafter, DMEM was replaced with fresh medium and cells were treated for 96 hrs with 10^11 cfu LP OAC-CAS-OLS-CsPT1^+, with caproic acid 0.003-0.3µg/ml or LP empty vector with caproic acid 0.003-0.3µg/ml.
The pro-apoptotic effect in Caco-2 cell cultured in the presence of LP OAC-CAS-OLS-CsPT1+ or LP empty vector was tested by immunoblot analysis of pro-apoptotic proteins level (Bax), as well as by rate of cells proliferation (MTT).
Immunoblot of Bax protein. Briefly, after homogenization in ice-cold hypotonic lysis buffer, protein concentration was determined using Bio-Rad protein assay kit (Bio-Rad, Milan, Italy). Analysis of Bax and β-actin protein expression was performed on total protein fractions of homogenates. Equivalent amounts (30 µg) of each homogenate underwent electrophoresis through a polyacrilamide minigel. […] Protein bands were then scanned and densitometrically analyzed with a GS-700 imaging densitometer.

Caco-2 cells = assay: MTT proliferation assay in human colon carcinoma cells; type: cell-based; settings: 96 hrs incubation; 10^11 cfu; caproic acid 0.003-0.3µg/ml
Experimental: To confirm the chemo-preventive action of cannabidiol in the experimental conditions, a study on the putative pro-apoptotic and anticancer activity exerted by LP OAC-CAS-OLS-CsPT1+ probiotic was tested in vitro in human colon carcinoma cells. CBD release in human colon carcinoma cell line was measured at the different time points.
as §1, with “Thereafter, DMEM was replaced with fresh medium and cells were treated for 96 hrs with 10^11 cfu LP OAC-CAS-OLS-CsPT1^+, with caproic acid 0.003-0.3µg/ml or LP empty vector with caproic acid 0.003-0.3µg/ml.” left out
MTT Proliferation and survival assays. Cell proliferation was evaluated by 3-[4,5-dimethylthiazol-2-yl]-2,5 diphenyltetrazolium bromide (MTT) assay. […] After this time point, the cells were lysed and the dark blue crystals solubilized with 125 µl of a solution containing 50% (N,N-dimethylformamide, 20% (w/v) sodium dodecylsulphate (pH 4.5). The optical density (OD) of each well was measured with a Perkin-Elmer (Waltham, MA, USA) microplate spectrophotometer equipped with a 620 nm filter. Cell viability in response to pentamidine was calculated as % cell viability (OD treated/OC control) X 100.

[1] = smoking; cited from earlier work

SMILES | expression level of the pro-apoptotic protein Bax-2 (Bax) | cell proliferation (MTT) (Caco-2 cells) | Δ^9-THC content in a cannabis cigarette that is absorbed [1]
CCCCCC(=O)O [caproic acid] | no significant effect | no significant effect | 
CCCCCc1cc(O)c2c(c1)OC(C)(C)[C@@H]1CCC(C)=C[C@@H]21 [Δ^9-THC, (-)-trans-Δ9-tetrahydrocannabinol] |  |  | about 20%
